Laboratory results from patent publication US8969333B2, “Therapeutic compositions and methods” (The Penn State Research Foundation, priority 2010, dated 2015).

Assays:
S180 tumor = assay: Sarcoma S180 cell-derived mouse tumor model; format: in vivo; settings: YW3-56 10 mg/kg i.p. daily for 1 week
Excerpt: A well-established sarcoma S180 cell-derived mouse tumor model is used in this example to determine the effects of PAD4 inhibitors of the present invention on tumor growth in mice.
S180 ascites tumor cells were used to form solid tumors after subcutaneous injection essentially as described in Wang, W. et al., Mol. Biosyst., 2011, 7:766-772. In brief, for initiation of subcutaneous tumors, the cells were obtained as an ascitic form from the tumor-bearing mice, which were serially transplanted once per week. Subcutaneous tumors were implanted by injecting 0.2 ml of 0.9% saline containing 1×10^7 viable tumor cells under the skin on the right armpit. 24 hr after implantation, male ICR mice were randomly divided into experimental groups. The mice in the positive control group were given a daily i.p injection of 2 mg/kg of doxorubicin in 0.2 ml of 0.9% saline for 7 consecutive days. The mice in the negative control group were given a daily i.p injection of 0.2 ml of 0.9% saline for 7 consecutive days. The mice in the treatment groups were given a daily i.p injection of YW3-56 (10 mg/kg), SAHA (5 mg/kg), or a combination of YW3-56 (5 mg/kg) and SAHA (2.5 mg/kg) for 7 consecutive days. The weights of the mice were recorded every day. 24 hr after the last administration, all mice were weighed, euthanized and immediately dissected to obtain and weigh the tumor and vital organs.

p53 and its target genes [1] = assay: RT-qPCR of p53 and its target gene mRNA in liver and spleen of treated nude mice; format: in vivo, mouse; settings: YW3-56 10 mg/kg, 3 months
Method: (§1) RNA was extracted using RNeasy Mini Kit (Qiagen) per manufacturer's instructions. 1 μg RNA was reverse transcribed into cDNA using qScript cDNA SuperMix (Quanta Biosciences) per manufacturer's instructions. Quantitative PCR was performed using SYBR Green SuperMix (Quanta Biosciences) in StepOnePlus Real-Time PCR System (Applied Biosystems). FIG. 10 is a graph showing p53 and its target gene expression induced in S180 cells by YW3-56 in a concentration dependent manner.
Expression of p53 and its target genes in mouse liver and spleen after YW3-56 injection at 10 mg/kg body weight once every two days for 3 months.
FIGS. 11a and 11b show results of the effect of long term YW3-56 treatment in mice. A pair of nude mice is mock injected or injected with YW3-56 for three months. RT-qPCR analyses of p53 and its target gene mRNA levels in control and YW3-56 treated mice. […] However, these changes are at low levels and no clear change in liver weight and morphology is observed.

[2] = tested on: Sesn2 promoter (+733 position); assay: ChIP analysis at the sestrin2 promoter in U2OS cells; format: cell-based, human; settings: 8 μM, 8 hr
Method: Chromatin immunoprecipitation experiments are performed to test if p53 and histone Arg modifications directly regulate Sesn2 gene promoter. ChIP experiments were carried out essentially as described in Li, P. et al., Mol. Cell Biol., 28 (15), 4745-4758 (2008). Antibodies used in ChIP were: anti-p53 (Sigma), anti-PAD4, anti-H3Cit (Abeam), anti-H3R17Me (Abeam). Multiple pairs of primers spanning different regions of Sesn2 are designed to identify a p53 binding site at the Sesn2 gene. p53 binding is relatively […] at the +733 position in untreated U2OS cells, while its binding to this site is dramatically elevated after DNA damage induced by UV irradiation. After 8 hr YW3-56 treatment, p53 binding at the +733 position of Sesn2 is increased >4-fold with a concomitant increase of histone H3 Arg17 methylation (H3R17Me) (FIG. 14G, upper panel). In contrast, after YW3-56 treatment, a decrease in PAD4 binding and histone H3 citrullination (H3Cit) at the +733 position is consistently detected. ChIP results support a model in which p53 associates with while PAD4 dissociates from the Sesn2 promoter after YW3-56 treatment, allowing a decrease in H3Cit and an increase in H3R17Me to facilitate Sesn2 expression.
FIG. 14G, ChIP analyses of p53 and PAD4 association as well as histone H3R17Me and H3Cit modifications at the sestrin2 promoter before and after YW3-56 treatment at 8 μM for 8 hr. […]

U2OS cells = assay: Phase contrast microscopy of U2OS cell growth and morphology; format: cell-based, human; settings: 0-16 μM, 24 hours
Method: Cell growth and morphology changes of cells treated with compounds of the present invention are analyzed using phase contrast microscopy.
A VistaVision invert microscope (VWR Inc.) equipped with a Spot Insight digital camera (NDS, Inc.) and a 10× phase contrast lens were used to analyze cell growth and morphology in phase contrast microscopy analyses.
In this example, U2OS are treated with […] YW3-56 for 24 hours.

LC3 = assay: Western blot of LC3 cleavage (autophagy); format: cell-based, human; settings: U2OS cells, concentration-dependent
Method: YW3-56 induces cell death by autophagy, a cell death process in which cellular proteins and organelles are degraded by fusion with lysosomes. Cleavage of LC3-I to generate a fast migrating isoform LC3-II is a characteristic autophagy event. LC3 cleavage is induced after YW3-56 treatment in a concentration-dependent manner as shown in the Western blot in FIG. 6. Western blot and immunostaining was performed essentially as described in Li, P. et al., Oncogene 29 (21), 3153-3162 (2010). Antibodies used in Western blot were anti-p53 (Sigma), anti-PAD4, anti-p21 (Sigma), anti-PUMA (Calbiochem), anti-SESN2 (Abeam), anti-p70S6K (Cell Signaling), anti-p70S6K-[…] (Cell Signaling), anti-LC3 (Cell Signaling) and anti-β-actin (Sigma) at appropriate dilutions. Anti-LC3B antibody (Cell Signaling) was used for immunostaining. DNA was stained by the DNA dye Hoechst.

p53 and its target genes [3] = assay: RT-qPCR of p53 and its target genes in S180 cells; format: cell-based, mouse; settings: concentration dependent
Method: as §1

**Q.** Which results are given for `CN(C)c1ccc2cc(C(=O)N[C@@H](CCCNC(=N)CCl)C(=O)NCc3ccccc3)ccc2c1` [YW3-56]?
**A.** growth of S180 tumor relative to control group (S180 tumor): ~51.5%; OKL38 mRNA change in liver (p53 and its target genes [1]; decrease): ~2 fold; PUMA mRNA change in liver (p53 and its target genes [1]; decrease): ~2 fold; p21 mRNA change in liver (p53 and its target genes [1]; increase): ~2 fold; p53 mRNA change in liver (p53 and its target genes [1]; increase): ~2 fold; changes in gene expression in spleen (p53 and its target genes [1]; 2-fold expression change as cut off): not detected; PAD4 binding and histone H3 citrullination (H3Cit) at the +733 position [2]: decrease; p53 binding at the +733 position of Sesn2, increase [2]: > 4 fold; U2OS cell density in culture (U2OS cells): decreases U2OS cell density; LC3 cleavage (LC3): induced; expression of p53 and its target genes including SESN1 and SESN2 (p53 and its target genes [3]): induced the expression
